Measurements from PubChem BioAssay AID1918993 (Molecular Pharmacology Branch, DTP, NCI, 2023).
Blank lines part the entries; values can stand above or below the molecule they belong to.

Tested on: 233499-124-R-J3-PDC complex spheroid growth
Test: Anticancer human tumor 233499-124-R-J3-PDC patient-derived colon adenocarcinoma cell line growth inhibition [AhR]
Conditions: for IC50: curve of first compound; for viability, T/C: stronger effect = lower value
Method in brief: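 Agents were dosed in half-log steps down from roughly clinical Cmax, or from 10 microM where Cmax was unknown, alone and with AhR antagonists. Read-out: percent test/control growth of tumor spheroids containing HUVEC and MSC stromal cells.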

[1] = second compound 0.1 µM, first compound 0.000949 µM
[2] = second compound 0.1 µM, first compound 0.003 µM
[3] = second compound 0.1 µM, first compound 0.00949 µM
[4] = second compound 0.1 µM, first compound 0.03 µM
[5] = second compound 0.1 µM, first compound 0.0949 µM
[6] = second compound 0.1 µM, first compound 0.3 µM
[7] = second compound 0.316 µM, first compound 0.000949 µM
[8] = second compound 0.316 µM, first compound 0.003 µM
[9] = second compound 0.316 µM, first compound 0.00949 µM
[10] = second compound 0.316 µM, first compound 0.03 µM
[11] = second compound 0.316 µM, first compound 0.0949 µM
[12] = second compound 0.316 µM, first compound 0.3 µM
[13] = second compound 1 µM, first compound 0.000949 µM
[14] = second compound 1 µM, first compound 0.003 µM
[15] = second compound 1 µM, first compound 0.00949 µM
[16] = second compound 1 µM, first compound 0.03 µM
[17] = second compound 1 µM, first compound 0.0949 µM
[18] = second compound 1 µM, first compound 0.3 µM
[19] = second compound 3.16 µM, first compound 0.000949 µM
[20] = second compound 3.16 µM, first compound 0.003 µM
[21] = second compound 3.16 µM, first compound 0.00949 µM
[22] = second compound 3.16 µM, first compound 0.03 µM
[23] = second compound 3.16 µM, first compound 0.0949 µM
[24] = second compound 3.16 µM, first compound 0.3 µM
[25] = second compound 10 µM, first compound 0.000949 µM
[26] = second compound 10 µM, first compound 0.003 µM
[27] = second compound 10 µM, first compound 0.00949 µM
[28] = second compound 10 µM, first compound 0.03 µM
[29] = second compound 10 µM, first compound 0.0949 µM
[30] = second compound 10 µM, first compound 0.3 µM
[31] = second compound 0.1 µM, first compound 0.0316 µM
[32] = second compound 0.1 µM, first compound 0.1 µM
[33] = second compound 0.1 µM, first compound 0.316 µM
[34] = second compound 0.1 µM, first compound 1 µM
[35] = second compound 0.1 µM, first compound 3.16 µM
[36] = second compound 0.1 µM, first compound 10 µM
[37] = second compound 0.316 µM, first compound 0.0316 µM
[38] = second compound 0.316 µM, first compound 0.1 µM
[39] = second compound 0.316 µM, first compound 0.316 µM
[40] = second compound 0.316 µM, first compound 1 µM
[41] = second compound 0.316 µM, first compound 3.16 µM
[42] = second compound 0.316 µM, first compound 10 µM
[43] = second compound 1 µM, first compound 0.0316 µM
[44] = second compound 1 µM, first compound 0.1 µM
[45] = second compound 1 µM, first compound 0.316 µM
[46] = second compound 1 µM, first compound 1 µM
[47] = second compound 1 µM, first compound 3.16 µM
[48] = second compound 1 µM, first compound 10 µM
[49] = second compound 3.16 µM, first compound 0.0316 µM
[50] = second compound 3.16 µM, first compound 0.1 µM
[51] = second compound 3.16 µM, first compound 0.316 µM
[52] = second compound 3.16 µM, first compound 1 µM
[53] = second compound 3.16 µM, first compound 3.16 µM
[54] = second compound 3.16 µM, first compound 10 µM
[55] = second compound 10 µM, first compound 0.0316 µM
[56] = second compound 10 µM, first compound 0.1 µM
[57] = second compound 10 µM, first compound 0.316 µM
[58] = second compound 10 µM, first compound 1 µM
[59] = second compound 10 µM, first compound 3.16 µM
[60] = second compound 10 µM, first compound 10 µM
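Note: spheroids exposed to agents for seven days before reading.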

IC50 (second compound 0.1 µM): 0.0154 µM
IC50 (second compound 0.316 µM): 0.0133 µM
IC50 (second compound 1 µM): 0.0132 µM
IC50 (second compound 3.16 µM): 0.0129 µM
IC50 (second compound 10 µM): < 0.000949 µM
Structure (SMILES): CC(C)CC(NC(=O)C(Cc1ccccc1)NC(=O)c1cnccn1)B(O)O (stereo not given) + Cc1cncc(-c2nc(NCCc3c[nH]c4ccccc34)c3ncn(C(C)C)c3n2)c1
viability, T/C [1]: 98.3%
viability, T/C [2]: 95.1%
viability, T/C [3]: 86.4%
viability, T/C [4]: 0.15%
viability, T/C [5]: 0.05%
viability, T/C [6]: 0.13%
viability, T/C [7]: 92%
viability, T/C [8]: 86.9%
viability, T/C [9]: 70.9%
viability, T/C [10]: 0.12%
viability, T/C [11]: 0.04%
viability, T/C [12]: 0.13%
viability, T/C [13]: 92.1%
viability, T/C [14]: 89%
viability, T/C [15]: 69.7%
viability, T/C [16]: 0.12%
viability, T/C [17]: 0.05%
viability, T/C [18]: 0.13%
viability, T/C [19]: 86.2%
viability, T/C [20]: 82.1%
viability, T/C [21]: 68.3%
viability, T/C [22]: 0.11%
viability, T/C [23]: 0.04%
viability, T/C [24]: 0.9%
viability, T/C [25]: 8.49%
viability, T/C [26]: 5.28%
viability, T/C [27]: 4.74%
viability, T/C [28]: 0.17%
viability, T/C [29]: 0.15%
viability, T/C [30]: 0.21%

IC50 (second compound 0.1 µM): > 0.3 µM
IC50 (second compound 0.316 µM): > 0.3 µM
IC50 (second compound 1 µM): > 0.3 µM
IC50 (second compound 3.16 µM): > 0.3 µM
IC50 (second compound 10 µM): < 0.000949 µM
Structure (SMILES): CCc1c2c(nc3ccc(O)cc13)-c1cc3c(c(=O)n1C2)COC(=O)[C@]3(O)CC + Cc1cncc(-c2nc(NCCc3c[nH]c4ccccc34)c3ncn(C(C)C)c3n2)c1
viability, T/C [1]: 97%
viability, T/C [2]: 99.5%
viability, T/C [3]: 77.6%
viability, T/C [4]: 77.5%
viability, T/C [5]: 71.1%
viability, T/C [6]: 91.8%
viability, T/C [7]: 101%
viability, T/C [8]: 89.9%
viability, T/C [9]: 71.9%
viability, T/C [10]: 67.2%
viability, T/C [11]: 66.4%
viability, T/C [12]: 67.6%
viability, T/C [13]: 86.4%
viability, T/C [14]: 89.1%
viability, T/C [15]: 70%
viability, T/C [16]: 81%
viability, T/C [17]: 94.3%
viability, T/C [18]: 64.3%
viability, T/C [19]: 90%
viability, T/C [20]: 96.2%
viability, T/C [21]: 72.3%
viability, T/C [22]: 86.1%
viability, T/C [23]: 70%
viability, T/C [24]: 65.3%
viability, T/C [25]: 10.4%
viability, T/C [26]: 13.7%
viability, T/C [27]: 21.5%
viability, T/C [28]: 17%
viability, T/C [29]: 9.13%
viability, T/C [30]: 7.22%

IC50 (second compound 0.1 µM): > 10 µM
IC50 (second compound 0.316 µM): > 10 µM
IC50 (second compound 1 µM): > 10 µM
IC50 (second compound 3.16 µM): > 10 µM
IC50 (second compound 10 µM): < 0.0316 µM
Structure (SMILES): COc1cc(Nc2ncc3c(n2)-c2ccc(Cl)cc2C(c2c(F)cccc2OC)=NC3)ccc1C(=O)O + Cc1cncc(-c2nc(NCCc3c[nH]c4ccccc34)c3ncn(C(C)C)c3n2)c1
viability, T/C [31]: 81%
viability, T/C [32]: 71.7%
viability, T/C [33]: 81.5%
viability, T/C [34]: 100%
viability, T/C [35]: 89%
viability, T/C [36]: 84.2%
viability, T/C [37]: 84.8%
viability, T/C [38]: 56.9%
viability, T/C [39]: 83.2%
viability, T/C [40]: 76.9%
viability, T/C [41]: 75.6%
viability, T/C [42]: 82.5%
viability, T/C [43]: 78%
viability, T/C [44]: 68.4%
viability, T/C [45]: 77.8%
viability, T/C [46]: 77.9%
viability, T/C [47]: 70.1%
viability, T/C [48]: 87.6%
viability, T/C [49]: 60.5%
viability, T/C [50]: 50.9%
viability, T/C [51]: 76.8%
viability, T/C [52]: 67.2%
viability, T/C [53]: 58%
viability, T/C [54]: 71.7%
viability, T/C [55]: 8.18%
viability, T/C [56]: 22.4%
viability, T/C [57]: 26.9%
viability, T/C [58]: 10.4%
viability, T/C [59]: 29.2%
viability, T/C [60]: 39.9%

IC50 (second compound 0.1 µM): 4.26 µM
IC50 (second compound 0.316 µM): 2.61 µM
IC50 (second compound 1 µM): 1.78 µM
IC50 (second compound 3.16 µM): 1.49 µM
IC50 (second compound 10 µM): < 0.0316 µM
Structure (SMILES): Nc1ccccc1NC(=O)c1ccc(CNC(=O)OCc2cccnc2)cc1 + Cc1cncc(-c2nc(NCCc3c[nH]c4ccccc34)c3ncn(C(C)C)c3n2)c1
viability, T/C [31]: 89.4%
viability, T/C [32]: 99.9%
viability, T/C [33]: 92.6%
viability, T/C [34]: 106%
viability, T/C [35]: 65.9%
viability, T/C [36]: 4.68%
viability, T/C [37]: 93.8%
viability, T/C [38]: 90%
viability, T/C [39]: 80.7%
viability, T/C [40]: 109%
viability, T/C [41]: 41.3%
viability, T/C [42]: 2.94%
viability, T/C [43]: 80.4%
viability, T/C [44]: 84.8%
viability, T/C [45]: 71.9%
viability, T/C [46]: 93.9%
viability, T/C [47]: 17.1%
viability, T/C [48]: 1.34%
viability, T/C [49]: 74%
viability, T/C [50]: 77.7%
viability, T/C [51]: 78.6%
viability, T/C [52]: 74.6%
viability, T/C [53]: 4.12%
viability, T/C [54]: 0.26%
viability, T/C [55]: 7.14%
viability, T/C [56]: 7.87%
viability, T/C [57]: 7.4%
viability, T/C [58]: 1.13%
viability, T/C [59]: 0.78%
viability, T/C [60]: 0.29%

IC50 (second compound 0.1 µM): 5.27 µM
IC50 (second compound 0.316 µM): 5.76 µM
IC50 (second compound 1 µM): 5.46 µM
IC50 (second compound 3.16 µM): 3.1 µM
IC50 (second compound 10 µM): < 0.0316 µM
Structure (SMILES): O=C(C=Cc1cccc(S(=O)(=O)Nc2ccccc2)c1)NO + Cc1cncc(-c2nc(NCCc3c[nH]c4ccccc34)c3ncn(C(C)C)c3n2)c1
viability, T/C [31]: 103%
viability, T/C [32]: 96.8%
viability, T/C [33]: 111%
viability, T/C [34]: 122%
viability, T/C [35]: 82%
viability, T/C [36]: 9.95%
viability, T/C [37]: 84.6%
viability, T/C [38]: 98.7%
viability, T/C [39]: 94.4%
viability, T/C [40]: 105%
viability, T/C [41]: 107%
viability, T/C [42]: 5.83%
viability, T/C [43]: 84.6%
viability, T/C [44]: 97.7%
viability, T/C [45]: 88.8%
viability, T/C [46]: 103%
viability, T/C [47]: 95.5%
viability, T/C [48]: 1.53%
viability, T/C [49]: 78.6%
viability, T/C [50]: 78.2%
viability, T/C [51]: 80.8%
viability, T/C [52]: 93.2%
viability, T/C [53]: 49.4%
viability, T/C [54]: 3.18%
viability, T/C [55]: 7.06%
viability, T/C [56]: 6.48%
viability, T/C [57]: 7.01%
viability, T/C [58]: 2.38%
viability, T/C [59]: 1.78%
viability, T/C [60]: 0.38%

IC50 (second compound 0.1 µM): > 10 µM
IC50 (second compound 0.316 µM): > 10 µM
IC50 (second compound 1 µM): > 10 µM
IC50 (second compound 3.16 µM): > 10 µM
IC50 (second compound 10 µM): < 0.0316 µM
Structure (SMILES): O=C(c1cc(Cc2n[nH]c(=O)c3ccccc23)ccc1F)N1CCN(C(=O)C2CC2)CC1 + Cc1cncc(-c2nc(NCCc3c[nH]c4ccccc34)c3ncn(C(C)C)c3n2)c1
viability, T/C [31]: 115%
viability, T/C [32]: 105%
viability, T/C [33]: 100%
viability, T/C [34]: 102%
viability, T/C [35]: 98.6%
viability, T/C [36]: 105%
viability, T/C [37]: 106%
viability, T/C [38]: 99.3%
viability, T/C [39]: 96.3%
viability, T/C [40]: 95.5%
viability, T/C [41]: 103%
viability, T/C [42]: 92.3%
viability, T/C [43]: 87.5%
viability, T/C [44]: 97.2%
viability, T/C [45]: 93.9%
viability, T/C [46]: 71.5%
viability, T/C [47]: 87.5%
viability, T/C [48]: 86%
viability, T/C [49]: 74.8%
viability, T/C [50]: 86.4%
viability, T/C [51]: 76.3%
viability, T/C [52]: 83.6%
viability, T/C [53]: 85.9%
viability, T/C [54]: 90.1%
viability, T/C [55]: 5.45%
viability, T/C [56]: 6.91%
viability, T/C [57]: 19.4%
viability, T/C [58]: 16.2%
viability, T/C [59]: 8.78%
viability, T/C [60]: 19.1%
